Results taken from patent publication US5719296A, “Pseudopeptide lactam inhibitors of peptide binding to MHC class II proteins” (Merck & Co., Inc., priority 1996, dated 1998).
Like-named read-outs stand apart in the source and are kept apart here.

Target: T1, DR1Dw1 (Homo sapiens, UniProt P01903+P01911, A100R/D57E/F55L/F60I/F76Y/I96L/L162R/M171V/P40L/Q125E/R42F/V115G/Y59C)
T1 construct: these are Drosophila transmembrane DR; made in house; host or cells: Drosophila (cells)
Assay: Inhibition assay: inhibition of biotinylated RMBP 90-102 peptide binding to MHC class II DR1
Procedure: For direct binding assays, optimal concentrations of affinity purified DR1Dwl (1.25 nM) or DR4Dw4 (10 nM) are incubated with serial dilutions of biotinylated rat myelin basic protein (RMBP) 90-102 in PBS (phosphate buffered saline) containing 0.75% octyl glucoside, pH 6.5, in 96-well polypropylene plates for 16 to 20 h at 37° C. In studies optimizing the assay it was determined that only between 5 to 10% of the DR molecules are capable of binding added peptide. Therefore, the effective concentration of DR1Dw1 and DR4Dw4 was approximately 0.125 and 1.0 nM, respectively. […] The DR-peptide complexes (50 μL) are transferred to wells of a 96-well EIA plate precoated with LB3.1, the monoclonal antibody which recognizes the DR alleles of MHC Class II, and blocked with PBS with fetal calf serum (FCS). An additional 50 μL of 50 mM Tris, pH 7.0, containing 0.75% octyl glucoside is added to each well and the mixture incubated overnight at 4° C. Excess peptide is removed by washing with PBS containing 0.05% Tween 20 (Polyoxyethylene sorbitan monolaurate) and 0.01% NAN3. Europium-labeled streptavidin (Wallac Inc.) is added and incubated overnight. After washing, complexes are measured by the addition of Enhance™ buffer, the tradename for 0.1 M acetate phthalate buffer, pH 3.2, containing 0.1% Triton X-100, tradename for polyoxyethylene ethers and other surface active compounds of Union Carbide Chemicals and Plastics Co., Inc. (particularly, a non-ionic surfactant for recovery of membrane components under non-denaturing conditions) 15 µM 2-naphthoyltrifluoroacetone, and 50 μM tri-N-octylphosphine oxide, which buffer releases the chelated europium from streptavidin and forms a highly fluorescent micellar solution. The resultant fluorescence is measured using a fluorescent plate reader (e.g., DELPHIA, Wallac, Inc.). The data are analyzed using a four-parameter logistical curve […] program (e.g., SigmaPlot) that calculates the concentration of biotinylated peptide giving a half-maximal signal (ED50).
The inhibition assay format is identical to the procedure described above with the exception that the unlabeled antagonist is serially diluted and incubated with constant concentrations of biotinylated RMBP 90-102 (0.3 nM for DR1Dw1 or 0.9 nM for DR4Dw4) and the MHC class II proteins. The concentration of unlabeled compound that prevents 50% of the labeled peptide from binding is the IC50 value. The concentration of the biotinylated RMBP 90-102 in each assay is experimentally determined to be […] one-sixth of its measured ED50 to assure the inhibition was primarily measuring the binding characteristics of the competitor.
In particular, a protocol for carrying out the inhibition assay is given below.
Preparation of Antibody Plate
Add 115 μL of 5 μg/mL LB3.1 in 50 mM Tris HCl pH 9.6/azide to each well of a Costar EIA plate. Incubate the plate overnight at 4° C.
Wash the plate 4 times with water/0.05% Tween-20/azide. Add 200 μL of PBS/5% FCS/azide for 1 hour at 4° C. to block the plate. The plate may be held at this point for later use or used immediately.
Flip out the block. It is not necessary to wash the plate. At 50 μL of load buffer (50 mM Tris HCl, pH 8.0 0.75% octylglucoside). Add to this volume 50 μL of the reaction mix from day 2, step 3 below.
Preparation of Reaction Mixture
(1) Add the following to a polypropylene round bottom 96-well plate such as a Costar #3794:
(A) Diluent (Ca Mg free PBS adjusted to pH 6.5 with 0.1 M KH2 PO4/0.75% octylglucoside/azide).81 μL
(B) Competitor at 16.6 times the final concentration in diluent or diluent alone. 9 μL
(C) Biotinylated RMBP (BRMBP) 90-102; 1.5 nM for DR1 or 4.5 nM for DR4 (These are 5 × stocks of final concentrations of 0.3 nM/DR1 or 0.9 nM/DR4)
(D) 6.25 nM DR1Dw1 or 50 nM DR4Dw4 (these are Drosophila transmembrane DR) (This is a 5× stock of the final concentration of 1.25 or 10 nM.) 30 μL Add the DR last and mix well at this time 150 μL
(2) Incubate at 37° C. for 20 min and 5 hours. […]

[1] = 20 min incubation at 37° C., 0.3 nM biotinylated RMBP 90-102, 1.25 nM DR1Dw1, pH 6.5, read-out: IC50 /μM @ 20'
[2] = 5 hours incubation at 37° C., 0.3 nM biotinylated RMBP 90-102, 1.25 nM DR1Dw1, pH 6.5, read-out: IC50 /μM @ 5 h

| Substance | IC50 [1] | IC50 [2] |
| --- | --- | --- |
| cHp(CH2)3 -(R)-γ-Lactam-Nva-Leu-NH2 [Example 14] | 0.34 µM | 2.9 µM |
| EtOCO-Phe-(S)-γ-Lactam-Nva-Leu-NH2 [Example 21] | 3.1 µM | 10.5 µM |
| cHx(CH2)3 -α-(3-guanidinopropyl)-(R)-γ-Lactam-Nva-NHNBu(COOEt) [Example 54] | 0.21 µM | 0.93 µM |
| cHx((CH3)C=CHCH2)-(R)-γ-Lactam-Nva-Leu-NH2 [Example 11] | 0.76 µM | 5.2 µM |
| EtOCO-Phe-(S)-δ-Lactam-L-Nva-Leu-NH2 [27(61)] | 3.4 µM | 10 µM |
| cHx(CH2)3 -α-propyl-(R)-γ-Lactam-Nva-NHNBu(COOEt) [Example 35] | 0.25 µM | 2 µM |
| cHx(CH23 -α-(3-Azidopropyl)-(R)-γ-Lactam-Nva-NHNBu(COOEt) [Example 52] | 0.16 µM | 0.62 µM |
| cHx((CH3)CHCH2 CH2 NH)-(R)-γ-Lactam-Nva-Leu-NH2 [Example 12] | 0.65 µM | 5.6 µM |
| cHp(CH2)3 -α-Propyl-(R)-γ-Lactam-Nva-Leu-NH2 [Example 32] | 0.15 µM | 1.4 µM |
| cHx(CH2)3 -α-(3-Aminopropyl)-(R)-γ-Lactam-Nva-NHNBu(COOEt) [Example 53] | 0.68 µM | 3.1 µM |
| cHx(CH2)3 -α-(3-Hydroxypropyl)-(R)-γ-Lactam-Nva-NHNBu(COOEt) [Example 51] | 0.16 µM | 0.63 µM |
| cHx(CH2)3 -α-(3-Hydroxypropyl)-(R)-γ-Lactam-Nva-Leu-NH2 [Example 33] | 0.13 µM | 0.86 µM |
| [4H]-Naphthyl-CH2 -(R)-γ-Lactam-Nva-Leu-NH2 [Example 50] | 2.5 µM | 23.5 µM |
